Literature values in patent publication US20140154346A1, “USE OF FENUGREEK EXTRACT TO ENHANCE FEMALE LIBIDO” (GE NUTRIENTS, INC., priority 2012, published 2014).

Tested on: women with hypoactive sexual disorder
Conditions: 300 μg/day, 12 months; also increase in desire and decrease in stress

With `C[C@]12CC[C@H]3[C@@H](CCC4=CC(=O)CC[C@@]43C)[C@@H]1CC[C@@H]2O` [testosterone] as the compound, how does the “frequency of satisfying sexual encounters” value read?
The value was “increased frequency”.
